Source: patent US12492181B2, “Gem-disubstituted piperidine melanocortin subtype-2 receptor (MC2R) antagonists and uses thereof” (Crinetics Pharmaceuticals, Inc., priority 2019, dated 2025)

Biological target: T1, hMC2 receptor (crude hMC2R membranes from CRE-bla-CHO-K1 cells stably expressing hMC2 receptor and hMRAP accessory protein) (Homo sapiens, UniProt Q01718)
T1 construct: crude membrane fractions
Assay: hMC2 membrane binding assay ([125I]ACTH (1-39) Tyr23, SPA)
Conditions: displacement of 0.2 nM [125I]ACTH (1-39) Tyr23 from hMC2R membranes, 1.5 hours at room temperature; read-out: MC2R binding potency
Summary of the method: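 Crude membranes from CRE-bla-CHO-K1 cells stably co-expressing hMC2R and hMRAP, premixed with WGA PVT SPA beads in pH 7.4 HEPES buffer (5 mM MgCl2, 1 mM CaCl2, 0.20% BSA, protease inhibitors). Compounds compete with [125I]ACTH(1-39) Tyr23, read by scintillation. Ki from non-linear regression.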

T1 sequence (Q01718 whole entry): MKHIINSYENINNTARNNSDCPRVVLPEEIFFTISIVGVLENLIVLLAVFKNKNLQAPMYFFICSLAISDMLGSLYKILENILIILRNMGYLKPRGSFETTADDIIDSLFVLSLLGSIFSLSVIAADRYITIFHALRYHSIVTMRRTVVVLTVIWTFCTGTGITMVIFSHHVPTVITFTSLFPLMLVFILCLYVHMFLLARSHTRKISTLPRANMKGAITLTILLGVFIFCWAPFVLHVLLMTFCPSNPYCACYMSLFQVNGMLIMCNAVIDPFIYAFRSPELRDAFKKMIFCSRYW
T1 sequence (Q8TCY5 whole entry partner): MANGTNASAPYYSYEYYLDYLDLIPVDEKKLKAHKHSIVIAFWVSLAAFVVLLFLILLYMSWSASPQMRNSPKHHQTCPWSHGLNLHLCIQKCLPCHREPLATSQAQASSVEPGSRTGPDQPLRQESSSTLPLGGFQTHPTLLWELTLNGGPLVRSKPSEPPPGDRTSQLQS

Compound `CCOc1ncccc1-c1ncc(C2(C(=O)N[C@@H]3CCN(C)C3)CCN(c3ccc(C(F)(F)F)cc3C#N)CC2)cc1F` [Compound 1-108, 1-[2-cyano-4-(trifluoromethyl)phenyl]-4-{2′-ethoxy-3-fluoro-[2,3′-bipyridin]-5-yl}-N-[(3R)-1-methylpyrrolidin-3-yl]piperidine-4-carboxamide] has a Ki of less than 10 nM.

`CCOc1ccccc1-c1ncc(C2(C(=O)N[C@@H]3CCN(C)C3)CCN(c3ccc(C(F)(F)F)cc3C#N)CC2)cc1F` [Compound 1-123, 1-[2-cyano-4-(trifluoromethyl)phenyl]-4-[6-(2-ethoxyphenyl)-5-fluoropyridin-3-yl]-N-[(3R)-1-methylpyrrolidin-3-yl]piperidine-4-carboxamide] showed a Ki of less than 10 nM.

Compound `COc1ccccc1-c1ccc(C2(C(=O)NC[C@@H]3C[C@H](F)CN3)CCN(c3ccc(C(F)(F)F)cc3C#N)CC2)cn1` [Compound 1-246, 1-[2-cyano-4-(trifluoromethyl)phenyl]-N-{[(2S,4S)-4-fluoropyrrolidin-2-yl]methyl}-4-[6-(2-methoxyphenyl)pyridin-3-yl]piperidine-4-carboxamide] has a Ki of less than 10 nM.

`CCOc1ncccc1-c1ncc(C2(C(=O)N[C@@H]3CCN(C)C3)CCN(c3ccc(C(F)(F)F)cc3C#N)CC2)cn1` [Compound 1-107, 1-[2-cyano-4-(trifluoromethyl)phenyl]-4-[2-(2-ethoxypyridin-3-yl)pyrimidin-5-yl]-N-[(3R)-1-methylpyrrolidin-3-yl]piperidine-4-carboxamide] gave a Ki of less than 10 nM.

`COc1ccccc1-c1ccc(C2(NC(=O)N[C@@H]3CCN(C)C3)CCN(c3ccc(C(F)(F)F)cc3C#N)CC2)cn1` [Compound 2-56, 1-{1-[2-cyano-4-(trifluoromethyl)phenyl]-4-[6-(2-methoxyphenyl)pyridin-3-yl]piperidin-4-yl}-3-[(3R)-1-methylpyrrolidin-3-yl]urea] was tested, and the Ki was less than 10 nM.

`CN1CC[C@@H](NC(=O)C2(c3ccc(-c4ccnn4C)nc3)CCN(c3ccc(C(F)(F)F)cc3C#N)CC2)C1` [Compound 1-43, 1-[2-cyano-4-(trifluoromethyl)phenyl]-4-[6-(1-methyl-1H-pyrazol-5-yl)pyridin-3-yl]-N-[(3R)-1-methylpyrrolidin-3-yl]piperidine-4-carboxamide] gave a Ki of less than 10 nM.

For `CCOc1ncccc1-c1ccc(C2(NC(=O)C3CN(C)C3)CCN(c3ccc(C(F)(F)F)cc3C#N)CC2)cn1` [Compound 2-32, N-{1-[2-cyano-4-(trifluoromethyl)phenyl]-4-{2′-ethoxy-[2,3′-bipyridin]-5-yl}piperidin-4-yl}-1-methylazetidine-3-carboxamide], the Ki was less than 10 nM.

Work on `CCOc1ncccc1-c1ccc(C2(C(=O)N[C@@H]3CCN(C)C3)CCN(c3c(Cl)cc(C(F)(F)F)cc3C#N)CC2)cc1` [Compound 1-29, 1-[2-chloro-6-cyano-4-(trifluoromethyl)phenyl]-4-[4-(2-ethoxypyridin-3-yl)phenyl]-N-[(3R)-1-methylpyrrolidin-3-yl]piperidine-4-carboxamide] yielded a Ki of 10 to 100 nM.

Work on `CCc1ccccc1-c1ccc(C2(C(=O)N[C@H]3CCN(C)C3)CCN(c3ccc(C(F)(F)F)cc3Cl)CC2)cn1` [Compound 1-156, 1-[2-chloro-4-(trifluoromethyl)phenyl]-4-[6-(2-ethylphenyl)pyridin-3-yl]-N-[(3S)-1-methylpyrrolidin-3-yl]piperidine-4-carboxamide] yielded a Ki of less than 10 nM.

For `CCOc1ccccc1-c1ccc(C2(C(=O)N[C@@H]3CCN(C)C3)CCN(c3ccc(C(F)(F)F)cc3C#N)CC2)cn1` [Compound 1-31, 1-[2-cyano-4-(trifluoromethyl)phenyl]-4-[6-(2-ethoxyphenyl)pyridin-3-yl]-N-[(3R)-1-methylpyrrolidin-3-yl]piperidine-4-carboxamide], the Ki was less than 10 nM.

`CCOc1ncccc1-c1ccc(C2(C(=O)NC3CN(C)CC3O)CCN(c3ccc(C(F)(F)F)cc3C#N)CC2)cn1` (single isomer, unassigned) [Compound 1-41, 1-[2-cyano-4-(trifluoromethyl)phenyl]-4-{2′-ethoxy-[2,3′-bipyridin]-5-yl}-N-[(3S,4S)*-4-hydroxy-1-methylpyrrolidin-3-yl]piperidine-4-carboxamide] gave a Ki of less than 10 nM.

In the case of `COc1ncc(F)cc1-c1ccc(C2(C(=O)N[C@H]3CCN(C)C3)CCN(c3ccc(C(F)(F)F)cc3Cl)CC2)cn1` [Compound 1-154, 1-[2-chloro-4-(trifluoromethyl)phenyl]-4-{5′-fluoro-2′-methoxy-[2,3′-bipyridin]-5-yl}-N-[(3S)-1-methylpyrrolidin-3-yl]piperidine-4-carboxamide], the Ki is reported as less than 10 nM.

`COc1ccccc1-c1ccc(C2(C(=O)N[C@H]3CCN(C)C3)CCN(c3ccc(Cl)cc3C#N)CC2)cn1` [Compound 1-91, 1-(4-chloro-2-cyanophenyl)-4-[6-(2-methoxyphenyl)pyridin-3-yl]-N-[(3S)-1-methylpyrrolidin-3-yl]piperidine-4-carboxamide] gave a Ki of less than 10 nM.

Work on `CNCCNC(=O)C1(c2cnc(-c3cccnc3OC)c(F)c2)CCN(c2ccc(C(F)(F)F)cc2Cl)CC1` [Compound 1-303, 1-[2-chloro-4-(trifluoromethyl)phenyl]-4-{3-fluoro-2′-methoxy-[2,3′-bipyridin]-5-yl}-N-[2-(methylamino)ethyl]piperidine-4-carboxamide] yielded a Ki of less than 10 nM.

Compound `CCOc1ncccc1-c1ccc(C2(C(=O)N[C@@H]3CCN(C)C3)CCN(c3ccc(C(F)(F)F)nc3C#N)CC2)cc1` [Compound 1-23, 1-[2-cyano-6-(trifluoromethyl)pyridin-3-yl]-4-[4-(2-ethoxypyridin-3-yl)phenyl]-N-[(3R)-1-methylpyrrolidin-3-yl]piperidine-4-carboxamide] has a Ki of less than 10 nM.

For `COc1c(F)cc(F)cc1-c1ccc(C2(C(=O)N[C@@H]3CCN(C)C3)CCN(c3ccc(C(F)(F)F)cc3C#N)CC2)cn1` [Compound 1-87, 1-[2-cyano-4-(trifluoromethyl)phenyl]-4-[6-(3,5-difluoro-2-methoxyphenyl)pyridin-3-yl]-N-[(3R)-1-methylpyrrolidin-3-yl]piperidine-4-carboxamide], the Ki was less than 10 nM.

Work on `Cn1cccc1-c1ccc(C2(C(=O)N[C@H]3C[C@@H](N(C)C)C3)CCN(c3ccc(C(F)(F)F)cc3C#N)CC2)cn1` [Compound 1-239, 1-[2-cyano-4-(trifluoromethyl)phenyl]-4-[6-(1-methyl-1H-pyrrol-2-yl)pyridin-3-yl]-N-[(1S,3S)-3-(dimethylamino)cyclobutyl]piperidine-4-carboxamide] yielded a Ki of 10 to 100 nM.

In the case of `Cn1cccc1-c1ccc(C2(C(=O)N[C@@H]3CN4CCC3CC4)CCN(c3ccc(C(F)(F)F)cc3C#N)CC2)cn1` [Compound 1-187, N-[(3S)-1-azabicyclo[2.2.2]octan-3-yl]-1-[2-cyano-4-(trifluoromethyl)phenyl]-4-[6-(1-methyl-1H-pyrrol-2-yl)pyridin-3-yl]piperidine-4-carboxamide], the Ki is reported as less than 10 nM.

For `Cc1occc1-c1ccc(C2(C(=O)N[C@@H]3CCN(C)C3)CCN(c3ccc(C(F)(F)F)cc3C#N)CC2)cn1` [Compound 1-116, 1-[2-cyano-4-(trifluoromethyl)phenyl]-4-[6-(2-methylfuran-3-yl)pyridin-3-yl]-N-[(3R)-1-methylpyrrolidin-3-yl]piperidine-4-carboxamide], the Ki was less than 10 nM.

With `C[C@@H](CN(C)C)NC(=O)C1(c2ccc(-c3cccn3C)nc2)CCN(c2ccc(C(F)(F)F)cc2F)CC1` [Compound 1-297, N-[(2S)-1-(dimethylamino)propan-2-yl]-1-[2-fluoro-4-(trifluoromethyl)phenyl]-4-[6-(1-methyl-1H-pyrrol-2-yl)pyridin-3-yl]piperidine-4-carboxamide] the Ki was less than 10 nM.

In the case of `CCOc1ncccc1-c1ncc(C2(C(=O)NCCN(C)C)CCN(c3ccc(C(F)(F)F)cc3Cl)CC2)cc1F` [Compound 1-288, 1-[2-chloro-4-(trifluoromethyl)phenyl]-N-[2-(dimethylamino)ethyl]-4-{2′-ethoxy-3-fluoro-[2,3′-bipyridin]-5-yl}piperidine-4-carboxamide], the Ki is reported as less than 10 nM.

In the case of `CCOc1ccc(F)cc1-c1ccc(C2(C(=O)N[C@@H]3CCN(C)C3)CCN(c3ccc(C(F)(F)F)cc3C#N)CC2)cn1` [Compound 1-69, 1-[2-cyano-4-(trifluoromethyl)phenyl]-4-[6-(2-ethoxy-5-fluorophenyl)pyridin-3-yl]-N-[(3R)-1-methylpyrrolidin-3-yl]piperidine-4-carboxamide], the Ki is reported as less than 10 nM.

`Cn1cccc1-c1ccc(C2(C(=O)NCCCN)CCN(c3ccc(C(F)(F)F)cc3C#N)CC2)cn1` [Compound 1-205, N-(3-aminopropyl)-1-[2-cyano-4-(trifluoromethyl)phenyl]-4-[6-(1-methyl-1H-pyrrol-2-yl)pyridin-3-yl]piperidine-4-carboxamide] gave a Ki of 10 to 100 nM.

`COc1c(F)cccc1-c1ccc(C2(C(=O)N[C@@H]3CCN(C)C3)CCN(c3ccc(C(F)(F)F)cc3C#N)CC2)cn1` [Compound 1-82, 1-[2-cyano-4-(trifluoromethyl)phenyl]-4-[6-(3-fluoro-2-methoxyphenyl)pyridin-3-yl]-N-[(3R)-1-methylpyrrolidin-3-yl]piperidine-4-carboxamide] gave a Ki of less than 10 nM.

In the case of `CCOc1ccccc1-c1ccc(C2(NC(=O)C3CN(C)C3)CCN(c3ccc(Cl)cc3C#N)CC2)cn1` [Compound 2-25, N-[1-(4-chloro-2-cyanophenyl)-4-[6-(2-ethoxyphenyl)pyridin-3-yl]piperidin-4-yl]-1-methylazetidine-3-carboxamide], the Ki is reported as less than 10 nM.

Compound `CCOc1ncccc1-c1ccc(C2(C(=O)N[C@@H]3CCN(C)C3)CCN(c3ccc(C(F)(F)F)nc3C(N)=O)CC2)cn1` [Compound 1-25, 3-(4-{2′-ethoxy-[2,3′-bipyridin]-5-yl}-4-{[(3R)-1-methylpyrrolidin-3-yl]carbamoyl}piperidin-1-yl)-6-(trifluoromethyl)pyridine-2-carboxamide] has a Ki of 10 to 100 nM.
